Reference: patent US4820695A, “C-20-dihydro-deoxy-(cyclic amino)-derivatives of macrolide antibiotics” (priority 1987, dated 1989)
In brackets after ≈: the same amount, converted by molar mass. Where two headings read alike, the source gives them in different places.

Columns and labels:
[1] = test system: Staphylococcus aureus V41; test: MIC, standard agar-dilution assay (Table IX); type: cell-based; conditions: Staphylococcus aureus V41, Penicillin-resistant strain
[2] = test system: Staphylococcus aureus X400; test: MIC, standard agar-dilution assay (Table IX); type: cell-based; conditions: Staphylococcus aureus X400, Methicillin-resistant strain
[3] = test system: Streptococcus pneumoniae Park I; test: MIC, standard agar-dilution assay (Table IX); type: cell-based; conditions: Streptococcus pneumoniae Park I, agar-dilution
Escherichia coli TEM = test: MIC, standard agar-dilution assay (Table IX); type: cell-based
[4] = test system: Haemophilus influenzae C.L.; test: MIC, standard agar-dilution assay (Table IX); type: cell-based; conditions: Ampicillin-sensitive strain
[5] = test system: Streptococcus Group D 2041; test: MIC, standard agar-dilution assay (Table IX); type: cell-based
Staphyloccus aureus X1.1 = test: MIC, standard agar-dilution assay (Table IX); type: cell-based, Staphylococcus aureus
[6] = test system: Streptococcus pyogenes C203; test: ED50 in mice experimentally infected with S. pyogenes C203 (Table XI); type: in vivo; conditions: Streptococcus pyogenes, doses given 1 and 4 hours postinfection, read-out: ED50
Method in brief: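 Protective ED50 (mg/kg × 2) was determined as the dose sparing half the animals. Test compound was given twice, at 1 and 4 hours after experimental S. pyogenes C203 infection of mice.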

[7] = test system: Staphylococcus aureus S13E; test: MIC, standard agar-dilution assay (Table IX); type: cell-based
[8] = test system: Haemophilus influenzae 76; test: MIC, standard agar-dilution assay (Table IX); type: cell-based; conditions: Haemophilus influenzae 76, Ampicillin-resistant strain
Escherichia coli EC14 = test: MIC, standard agar-dilution assay (Table IX); type: cell-based
Escherichia coli N10 = test: MIC, standard agar-dilution assay (Table IX); type: cell-based
Pasteurella multocida [9] = test: Pasteurella infection in one-day-old chicks, subcutaneous administration (Table XII); type: in vivo; conditions: Administered subcutaneously, 30 mg/kg × 2, 1 and 4 hours post-challenge
Method in brief: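 Treatment was 30 mg/kg s.c., given twice (1 and 4 h after infection). The infection itself was induced in day-old chicks by s.c. injection of 0.1 ml of avian Pasteurella multocida culture (20-h tryptose broth, diluted 10^-4).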

[10] = test system: Staphylococcus epidermidis 222; test: MIC, standard agar-dilution assay (Table IX); type: cell-based
Klebsiella X26 = test: MIC, standard agar-dilution assay (Table IX); type: cell-based
[11] = Titratable groups in 66% aqueous DMF (Tables XIV-XVI); type: physicochemical
Excerpt: ^c Run in 66% aqueous DMF
^d Run in 66% aqueous DMF

[12] = test system: Streptococcus pyogenes C203; test: MIC, standard agar-dilution assay (Table IX); type: cell-based
[13] = test system: Staphylococcus epidermidis EPI1; test: MIC, standard agar-dilution assay (Table IX); type: cell-based; conditions: Staphylococcus epidermidis EPI1, agar-dilution
[14] = test system: Pasteurella multocida 17E; test: MIC, broth-dilution microtiter test (Table X); type: cell-based; conditions: Bovine isolate
Excerpt: (§1) The MIC's in Table X were obtained using conventional broth-dilution microtiter tests.

[15] = test system: Pasteurella hemolytica 22C; test: MIC, broth-dilution microtiter test (Table X); type: cell-based
Excerpt: as §1

Mycoplasma synoviae 40A = test: MIC, broth-dilution microtiter test (Table X); type: cell-based
Excerpt: as §1

Mycoplasma hyorhinis 29E = test: MIC, broth-dilution microtiter test (Table X); type: cell-based
Excerpt: as §1

[16] = test system: Mycoplasma gallisepticum 29C; test: MIC, broth-dilution microtiter test (Table X); type: cell-based
Excerpt: as §1

[17] = test system: Pasteurella multocida 60A; test: MIC, broth-dilution microtiter test (Table X); type: cell-based; conditions: Avian isolate
Excerpt: as §1

Streptococcus sp. 19F = test: MIC, broth-dilution microtiter test (Table X); type: cell-based
Excerpt: as §1

Staphylococcus aureus = test: MIC, broth-dilution microtiter test (Table X); type: cell-based
Excerpt: as §1

[18] = test system: Mycoplasma hyopneumoniae S5972; test: MIC, broth-dilution microtiter test (Table X); type: cell-based
Excerpt: as §1

Pasteurella multocida [19] = test: Pasteurella infection in one-day-old chicks, medicated drinking water (Table XIII); type: in vivo; conditions: Administered in the available drinking water at 2 g/gal
Procedure: Many of the C-20 modified derivatives of this invention have also shown in vivo antibacterial activity against infections induced by gram-negative bacteria. Tables XII and XIII summarize the results of tests in which illustrative compounds were evaluated against a Pasteurella infection in one-day-old chicks. The compounds were administered parenterally or orally after challenge of the chicks with Pasteurella multocida (0.1 ml of a 10^-4 dilution of a twenty-hour tryptose broth culture of an avian P. multocida given subcutaneously). In these tests, unless indicated otherwise, all non-medicated infected chicks died within 24 hours of Pasteurella challenge. In the tests summarized in Table XII, the compounds were administered by subcutaneous injection at a dosage of 30 mg/kg, 1 and 4 hours post-challenge of the chicks with P. multocida. In the tests summarized in Table XIII the compounds were administered in medicated drinking water (at a level of 2 g/gal) available from 4 to 20 hours prior to challenge of the chicks with P. multocida and during the 3 -day test period.
^a Administered in the available drinking water at a concentration of […]

[20] = test system: Streptococcus Group D X66; test: MIC, standard agar-dilution assay (Table IX); type: cell-based

SMILES: CCC1OC(=O)CC(O)C(C)C(OC2OC(C)C(O)C(N(C)C)C2O)C(CCN2CCCCCC2)CC(C)C(=O)C=CC(C)=CC1COC1OC(C)C(O)C(OC)C1OC (stereo not drawn) [Compound D5, 20-DH-DO-20-(Hexahydroazepin-1-yl)desmycosin]
- MIC ([1]; read-out: MIC): 0.5 µg/mL (≈ 0.585 µM)
- MIC ([2]; read-out: MIC): 1 µg/mL (≈ 1.17 µM)
- MIC ([3]; read-out: MIC): 0.5 µg/mL (≈ 0.585 µM)
- MIC (Escherichia coli TEM; read-out: MIC): 8 µg/mL (≈ 9.36 µM)
- MIC ([4]; read-out: MIC): 16 µg/mL (≈ 18.7 µM)
- MIC ([5]; GROUPD2041, read-out: MIC): 8 µg/mL (≈ 9.36 µM)
- MIC (Staphyloccus aureus X1.1; Staphylococcus aureus, read-out: MIC): 0.5 µg/mL (≈ 0.585 µM)
- ED50 ([6]; C203, Oral): 50 mg/kg
- ED50 ([6]; C203, sc, Subcutaneous): 1.3 mg/kg
- MIC ([7]; Staphylococcus aureus, S13E): 0.25 µg/mL (≈ 0.292 µM)
- MIC ([8]; read-out: MIC): 128 µg/mL (≈ 150 µM)
- MIC (Escherichia coli EC14; read-out: MIC): 4 µg/mL (≈ 4.68 µM)
- MIC (Escherichia coli N10; read-out: MIC): 128 µg/mL (≈ 150 µM)
- Number of Deaths/Number Treated (Pasteurella multocida [9]): 0/10
- MIC ([10]; read-out: MIC): 0.12 µg/mL (≈ 0.14 µM)
- MIC (Klebsiella X26; read-out: MIC): > 128 µg/mL
- pKa ([11]; Titratable groups): 9.6
- pKa ([11]; Titratable groups (first value)): 7.9
- MIC ([12]; read-out: MIC): 0.5 µg/mL (≈ 0.585 µM)
- MIC ([13]; read-out: MIC): 0.5 µg/mL (≈ 0.585 µM)
- MIC ([14]; read-out: MIC): 3.12 µg/mL (≈ 3.65 µM)
- MIC ([15]; read-out: MIC): 1.56 µg/mL (≈ 1.82 µM)
- MIC (Mycoplasma synoviae 40A; Mycoplasmopsis synoviae, read-out: MIC): 0.39 µg/mL (≈ 0.456 µM)
- MIC (Mycoplasma hyorhinis 29E; read-out: MIC): 50 µg/mL (≈ 58.5 µM)
- MIC ([16]; Mycoplasmoides gallisepticum, read-out: MIC): 1.56 µg/mL (≈ 1.82 µM)
- MIC ([17]; read-out: MIC): 3.12 µg/mL (≈ 3.65 µM)
- MIC (Streptococcus sp. 19F; read-out: MIC): 3.12 µg/mL (≈ 3.65 µM)
- MIC (Staphylococcus aureus; read-out: MIC): 1.56 µg/mL (≈ 1.82 µM)
- MIC ([18]; Mesomycoplasma hyopneumoniae, read-out: MIC): 1.56 µg/mL (≈ 1.82 µM)
- Number of Deaths/Number Treated (Pasteurella multocida [19]): 2/10
- MIC ([20]; read-out: MIC): 8 µg/mL (≈ 9.36 µM)

SMILES: CCC1OC(=O)CC(O)C(C)C(OC2OC(C)C(O)C(N(C)C)C2O)C(CCN2CCC(C)CC(C)(C)C2)CC(C)C(=O)C=CC(C)=CC1COC1OC(C)C(O)C(OC)C1OC (single isomer, unassigned) [Compound D23, 20-DH-DO-20-(3,3,5-Trimethylhexahydroazepin-1-yl)desmycosin]
- MIC [1]: 0.5 µg/mL (≈ 0.557 µM)
- MIC [2]: 1 µg/mL (≈ 1.11 µM)
- MIC [3]: 0.5 µg/mL (≈ 0.557 µM)
- MIC (Escherichia coli TEM): 32 µg/mL (≈ 35.7 µM)
- MIC [4]: 16 µg/mL (≈ 17.8 µM)
- MIC [5]: 8 µg/mL (≈ 8.92 µM)
- MIC (Staphyloccus aureus X1.1): 0.5 µg/mL (≈ 0.557 µM)
- MIC ([7]; Staphylococcus aureus S13E, agar-dilution): 0.5 µg/mL (≈ 0.557 µM)
- MIC [8]: 8 µg/mL (≈ 8.92 µM)
- MIC (Escherichia coli EC14): 64 µg/mL (≈ 71.3 µM)
- MIC (Escherichia coli N10): 64 µg/mL (≈ 71.3 µM)
- Number of Deaths/Number Treated (Pasteurella multocida [9]): 8/10
- MIC [10]: 0.5 µg/mL (≈ 0.557 µM)
- MIC (Klebsiella X26): 128 µg/mL (≈ 143 µM)
- Titratable groups [11]: 9.0
- Titratable groups (first value) [11]: 7.7
- MIC [12]: 0.5 µg/mL (≈ 0.557 µM)
- MIC [13]: 0.5 µg/mL (≈ 0.557 µM)
- MIC [14]: 6.25 µg/mL (≈ 6.97 µM)
- MIC [15]: 3.12 µg/mL (≈ 3.48 µM)
- MIC (Mycoplasma synoviae 40A): 0.097 µg/mL (≈ 0.108 µM)
- MIC (Mycoplasma hyorhinis 29E): 6.25 µg/mL (≈ 6.97 µM)
- MIC [16]: 0.097 µg/mL (≈ 0.108 µM)
- MIC [17]: 12.5 µg/mL (≈ 13.9 µM)
- MIC (Streptococcus sp. 19F): 1.56 µg/mL (≈ 1.74 µM)
- MIC (Staphylococcus aureus): 3.12 µg/mL (≈ 3.48 µM)
- MIC [18]: 0.78 µg/mL (≈ 0.869 µM)
- Number of Deaths/Number Treated (Pasteurella multocida [19]): 4/10
- MIC [20]: 4 µg/mL (≈ 4.46 µM)
